Our source for the cytotoxicity values is ChEMBL document CHEMBL3507680, “University of Dundee, Gates Library screen for HepG2 cell viability”.

Each structure is given as a SMILES string.

This series is described as follows: Human HepG2 cell viability assay in 384 well format. On the set-up: dose 125 nL, time 70.5 hour; cytotoxicity at 70.5 h: concentration not given beside the values. To be noted: HepG2 cells, read-out: Inhibition. It is filed as toxicity, cell-based.
As to `Cc1ccc(CN(C)C(=O)NCC(=O)NC(C)(C)C)s1`, the cytotoxicity at 70.5 h is -3.18%.
`CC1(NC(=O)Cc2csc(NC(=O)c3ccccc3)n2)CCS(=O)(=O)C1` (configuration not stated): the cytotoxicity at 70.5 h was -71.2%.
On to `O=C(CC1CCCC1)N1C[C@@H]2CN(Cc3ccoc3)CCO[C@@H]2C1`, for which the cytotoxicity at 70.5 h was -11.5%.
Regarding `COc1c(C)cnc(CSc2nnc(N)s2)c1C`, the cytotoxicity at 70.5 h is -3.12%.
As to `Fc1cnc(N2CC[C@@H](N3CCOCC3)[C@@H]2Cc2cccnc2)nc1`, the cytotoxicity at 70.5 h amounted to 9.63%.
As to `Fc1ccc(CN2CCC(c3n[nH]c4nccnc34)CC2)cc1F`, the cytotoxicity at 70.5 h worked out at 7.75%.
With `Cc1cccc(NC(=O)N2CCN(Cc3noc(C4CC4)n3)CC2)c1` the figure was 2.6%; with `COc1ccc(NC(=O)N(C)Cc2ccco2)cn1`, -6.69%.
Under `Cc1nn(C(C)(C)C)c(=O)n1CC(=O)NCC(F)(F)F` stands 3.06%; under `COCCN1CCC2(CC1)CC(NC(=O)C(C)C)c1ccccc1O2` (configuration not stated), -4.05%.
On to `CC(C)(C)c1cnc(CN2C(=O)CC3(CCSC3)C2=O)o1` (configuration not stated), for which the cytotoxicity at 70.5 h is -4.79%.
For `Cc1cc(C(=O)N2CCOC(c3nc(C)n[nH]3)C2)[nH]n1` (configuration not stated), the cytotoxicity at 70.5 h came out at 3.96%.
As to `CCCNC(=O)c1nn(CC)cc1NC(=O)c1c(C)nn(C)c1C`, the cytotoxicity at 70.5 h was -11.3%.
For the compound `Cc1occc1C(=O)NCCOc1ccc(C(F)(F)F)cn1`, the cytotoxicity at 70.5 h turned out to be 18.8%.
Consider `COc1cc(C)c(C2CC(=O)Nc3cc(NS(C)(=O)=O)ccc32)cc1C` (configuration not stated), for which the cytotoxicity at 70.5 h is 0.99%.
With `CC(C)N(CCO)C(=O)C1CCC(=O)N(Cc2ccc(Cl)cc2)C1` (configuration not stated), the cytotoxicity at 70.5 h is -4.75%.
As for `Nc1cc(-c2cc[nH]n2)nc(N2CCCC2)n1`, the cytotoxicity at 70.5 h was determined as 5.5%.
On to `CNc1cc2c(nn1)CCN(C(=O)c1cc(C)no1)C2`, for which the cytotoxicity at 70.5 h was -7.41%.
With `CC(Oc1ccccc1C(F)(F)F)C(=O)NCC(N)=O` (configuration not stated), the cytotoxicity at 70.5 h is -1.2%.
Consider `O=C1COC2(CCN(C(=O)c3cnccn3)CC2)CN1CC1CC1`, for which the cytotoxicity at 70.5 h turned out to be 18.8%.
In the case of `CC(C1CC1)N(C)C(=O)c1cnc(-c2ccc3c(c2)OCO3)s1` (configuration not stated), the cytotoxicity at 70.5 h amounted to 13.8%.
With `CCS(=O)(=O)N1CCCC(c2nccn2Cc2cccnc2)C1` (configuration not stated) the figure was -7.4%; with `Cc1nc(CN2CCCn3cnc(COC(C)C)c3C2)cs1`, -2.95%.
For `CNC(=O)[C@@]12CCO[C@@H]1CCN(Cc1c(C)noc1C)C2`, the cytotoxicity at 70.5 h is -6.35%.
With `CC(NCc1cnc(C2CCC2)s1)c1ccc(-n2cccn2)cc1` (configuration not stated) the figure was -8.33%; with `CCN(CC)c1ncccc1CNCc1cc2ccccc2s1`, -2.63%.
With `O=C(O)[C@H]1CCCN1CCOc1cccc(Cl)c1` the figure was -5.33%; with `CC(=O)N1CCCC2(CN(Cc3ccncc3)CCO2)C1` (configuration not stated), -1.7%.
As for `Cc1cnc(N2CCC3(CCCN(c4ncc(F)cn4)C3)C2)nc1` (configuration not stated), the cytotoxicity at 70.5 h was -5.99%.
`CCCS(=O)(=O)N1CCC(NC(=O)c2ccc(C)s2)CC1`: the cytotoxicity at 70.5 h was -8.95%.
As for `CSc1ncccc1C(=O)NC(C)c1cccc(N2CCOC2=O)c1` (configuration not stated), the cytotoxicity at 70.5 h is -10.4%.
For `CC1(C)O[C@@](C)([C@H]2CC3(CCN(c4ncccn4)CC3)CO2)CC[C@@H]1O`, the cytotoxicity at 70.5 h is -4.22%.
Take `COc1ccccc1NC(=O)c1[nH]nc(C(C)C)c1Br`: the cytotoxicity at 70.5 h is -3.43%.
With `CN(C)S(=O)(=O)NCC1(c2ccccc2Br)CC1` the figure was 13.4%.
On to `Cc1ccc(C(=O)Nc2cc(C(N)=O)ccc2N2CCCCC2)cc1F`, for which the cytotoxicity at 70.5 h was -2.35%.
Take `CCNC(=O)NC1CN(Cc2ccncc2Cl)C[C@@H]1OC` (some centres not stated): the cytotoxicity at 70.5 h amounted to 28.4%.
On to `CC(C)c1nc(C2CCCN2CC(=O)Nc2nncs2)no1` (configuration not stated), for which the cytotoxicity at 70.5 h is -1.18%.
For the compound `Cc1cccc(C)c1OCCNC(=O)C[S+]([O-])C1CCCC1` (configuration not stated), the cytotoxicity at 70.5 h was -5.72%.
`COc1ccc(-c2nnc(SCC(=O)NCC(C)C)[nH]2)c(OC)c1`: the cytotoxicity at 70.5 h was -7.35%.
With `CSCC(C)(O)CNc1cccc(F)c1C(C)=O` (configuration not stated) the figure was -5.74%.
For the compound `CC(C)CCC(=O)NCc1ccc(N2CCCCC2)cc1`, the cytotoxicity at 70.5 h is -9.32%.
In the case of `CCC(CO)N(Cc1ccsc1)CC1CC1` (configuration not stated), the cytotoxicity at 70.5 h is -4.03%.
For `CC(C)c1nccn1C(C)C(=O)N1CCN(S(C)(=O)=O)CC1` (configuration not stated), the cytotoxicity at 70.5 h was -9.53%.
In the case of `Cc1nn(C)c(C)c1-c1cncc(C2CCN(S(C)(=O)=O)CC2)n1`, the cytotoxicity at 70.5 h is -19.6%.
In the case of `O=C1[C@@H]2CCN(Cc3ccncc3)C[C@@H]2OCCN1c1ccccc1`, the cytotoxicity at 70.5 h is -8.52%.
Take `c1cnc2[nH]c(C3CCCC3)c(CN3CCCCC3)c2c1`: the cytotoxicity at 70.5 h is -7.43%.
On to `CCc1[nH]c2c(CNc3cncc(C(=O)N(C)C)n3)cc(F)cc2c1C`, for which the cytotoxicity at 70.5 h came out at 4.01%.
As for `Cc1ccc(N2CCN(C(=O)COc3ncccn3)CC2)nn1`, the cytotoxicity at 70.5 h was -7.37%.
Turning to `CC1COCCN1Cc1nc(-c2cccc(Br)c2)no1` (configuration not stated), the cytotoxicity at 70.5 h was determined as 13.8%.
With `O=C(NC1CCCCC1)N1CCCC1c1nnc2n1CCNC2` (configuration not stated), the cytotoxicity at 70.5 h is 19.4%.
Consider `c1cc(-c2ccc3c(c2)CCC32CCN(c3nncs3)CC2)ccn1`, for which the cytotoxicity at 70.5 h is -2.69%.
In the case of `COc1c(C2CCCN2CC(=O)N2CCCCC2)c(C)nn1C` (configuration not stated), the cytotoxicity at 70.5 h turned out to be 4.89%.
On to `CC(C)(C)CN(CCC#N)C(=O)c1cccc(CN2CCCC2)c1`, for which the cytotoxicity at 70.5 h turned out to be 4.22%.
Turning to `CC(=O)c1ccc(C(=O)N2CCCCC2c2nc[nH]n2)cc1` (configuration not stated), the cytotoxicity at 70.5 h turned out to be 1.34%.
With `O=C1NCCCc2[nH]c(C3CCCN(C(=O)C4CC4)C3)nc21` (configuration not stated), the cytotoxicity at 70.5 h was -10.4%.
As for `c1ccc(O[C@@H]2CC[C@H]3[C@H]2OCCN3CC2CCOCC2)nc1`, the cytotoxicity at 70.5 h was 1.68%.
Turning to `Cc1cc(CNC(=O)N2CCc3ccccc3C2CO)c(C)o1` (configuration not stated), the cytotoxicity at 70.5 h was -5.72%.
`Cc1ccc(CC2CCCN(S(C)(=O)=O)C2)nc1` (configuration not stated): the cytotoxicity at 70.5 h is -9.35%.
For `O=C(NCC1SCCc2ccccc21)c1cscn1` (configuration not stated), the cytotoxicity at 70.5 h was -13.5%.
In the case of `CCc1nc(C2CCCN2Cc2cc(C)nc3ccccc23)no1` (configuration not stated), the cytotoxicity at 70.5 h stood at 2.62%.
Take `CC(=O)Nc1cc(Br)cnc1OCC(F)(F)F`: the cytotoxicity at 70.5 h is 20.4%.
For `COC(=O)C1CN(Cc2nc(C(C)(C)C)cs2)C[C@@H](C)O1` (some centres not stated), the cytotoxicity at 70.5 h is -7.31%.
Take `CCCS(=O)(=O)N1CCN(c2cc(-n3ccnc3)nc(C)n2)CC1`: the cytotoxicity at 70.5 h is -3.96%.
As to `COCC(O)CN1CCC(=O)N(CC(=O)C(C)(C)C)Cc2ccccc21` (configuration not stated), the cytotoxicity at 70.5 h is -4.8%.
Under `Cc1ccc(C)c(C(NC2CCCC2)c2cccnc2)c1` (configuration not stated) stands 7.4%; under `COCCN1CCCC1c1nccnc1Nc1ncc(C)s1` (configuration not stated), -1.57%.
Under `O=C(O)c1cc2c(nc1O)CC(c1cccc(Cl)c1)CC2=O` (configuration not stated) stands -2.93%.
As to `CC[C@H]1CN(S(=O)(=O)c2ccccc2)CC[C@H]1CC(=O)O`, the cytotoxicity at 70.5 h came out at 5.41%.
As for `Cc1nnc(Nc2cccc(C3CCCN(Cc4ncc[nH]4)C3)n2)s1` (configuration not stated), the cytotoxicity at 70.5 h is 14%.
For `c1cnnc(N2CCCC2CNc2nc3ccccc3o2)c1` (configuration not stated), the cytotoxicity at 70.5 h was -2.85%.
On to `Cc1ncsc1-c1nc(Cc2cccs2)nn1C1CCN(C)CC1`, for which the cytotoxicity at 70.5 h was -4.07%.
Turning to `O=C(OCC1CCCN1)c1cccc(NC(=O)c2ccco2)c1` (configuration not stated), the cytotoxicity at 70.5 h was -14.8%.
